Laboratory results published in US10908171B2, “Additive channels” (Emulate Inc., priority 2016, dated 2021).

Test system: platelets
Experiment: Platelet activation quality control by p-selectin expression
Type: cell-based, human
Conditions: control blood
Procedure: To test for a thrombic event, blood was collected from 4 donors, the as blood alone or blood treated with hu5C8 alone (240 μg/ml), sCD40L (10 ng/ml) alone or with combined hu5C8/sCD40L was incubated for 20 minutes at room temperature. Each sample was further incubated for 5 minutes with fluorescent labels for platelets and fibrinogen. As a standard quality control, the control blood was tested for platelet activation using p-selection expression. We confirmed that platelets in control blood were not activated but upon activation by ADP, over 90% of platelet was positive for p-selectin.

## Nc1ncnc2c1ncn2[C@@H]1O[C@H](COP(=O)(O)OP(=O)(O)O)[C@@H](O)[C@H]1O [ADP]
  platelets positive for p-selectin upon activation: over 90%
